Results reported in patent US20100298141A1, “SUBSTITUTED PYRIDINE N-OXIDE HERBICIDES” (E. I. DU PONT DE NEMOURS AND COMPANY, priority 2007, published 2010).

How the values were obtained:
Italian ryegrass = test: Test C pre-/postemergence test; format: in vivo, Lolium multiflorum
Method in brief: (§1)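 Seeds were planted and treated preemergence with test chemical in a non-phytotoxic solvent mixture containing surfactant. Postemergence applications of the same formulation went onto plants 2 to 18 cm tall (1- to 4-leaf stage). A dash marks no test result.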

crabgrass [1] = test: Test A pre-/postemergence greenhouse test; format: in vivo, Digitaria sanguinalis; conditions: for Crabgrass, Large plant response rating: 0 to 100 scale; for Plant response rating, Crabgrass, Large: 0 to 100 scale where 0 is no effect and 100 is complete control
Method in brief: (§2)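 Sowing in loam/sand; same-day pre (directed soil spray) and post (foliar, 1–2 leaf, 2–10 cm) treatment with surfactant-containing non-phytotoxic solvent formulation; ~10 days in greenhouse; eye-scored injury against untreated plants.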

eastern black nightshade = test: Test C pre-/postemergence test; format: in vivo, Solanum ptycanthum
Source text: Seeds of plant species selected from blackgrass (Alopecurus myosuroides), downy brome (Bromus tectorum), green foxtail (Setaria viridis), Italian ryegrass (Lolium multiflorum), wheat (Triticum aestivum), wild oat (Avena fatua), catchweed bedstraw (Galium aparine), Russian thistle (Salsola kali), […] (Cynodon dactylon), Surinam grass (Brachiaria decumbens), cocklebur (Xanthium strumarium), corn (Zea mays), crabgrass (Digitaria sanguinalis), woolly cupgrass (Eriochloa villosa), giant foxtail (Setaria faberii), Goosegrass (Eleusin indica), johnsongrass (Sorghum halepense), kochia (Kochia scoparia), lambsquarters (Chenopodium album), morningglory (Ipomoea coccinea), eastern black nightshade (Solanum ptycanthum), yellow nutsedge (Cyperus esculentus), pigweed (Amaranthus retroflexus), common ragweed (Ambrosia elation), soybean (Glycine max), common (oilseed) sunflower (Helianthus annuus), and velvetleaf (Abutilon theophrasti) were planted and treated preemergence with test chemicals formulated in a non-phytotoxic solvent mixture which included a surfactant. At the same time, plants selected from these crop and weed species and also winter barley (Hordeum vulgare), canarygrass (Phalaris minor), and chickweed (Stellaria media) were treated with postemergence applications of some of the test chemicals formulated in the same manner. Plants ranged in height from 2 to 18 cm (1- to 4-leaf stage) for postemergence treatments. […] At time of treatment, test pots were flooded to 3 cm above the soil surface, treated by application of test compounds directly to the paddy water, and then maintained at that water depth for the duration of the test. […] A dash (-) response means no test result.

barnyardgrass = test: Test A pre-/postemergence greenhouse test; format: in vivo, Echinochloa crus-galli; conditions: for Barnyardgrass plant response rating: 0 to 100 scale; for Plant response rating, Barnyardgrass: 0 to 100 scale where 0 is no effect and 100 is complete control
Method in brief: as §2

pigweed = test: Test C pre-/postemergence test; format: in vivo, Amaranthus retroflexus
Method in brief: as §1

Surinam grass = test: Test C pre-/postemergence test; format: in vivo, Brachiaria decumbens
Method in brief: as §1

[2] = tested on: common (oilseed) sunflower; test: Test C pre-/postemergence test; format: in vivo, Helianthus annuus
Method in brief: as §1

giant foxtail = test: Test C pre-/postemergence test; format: in vivo, Setaria faberii
Method in brief: as §1

johnsongrass = test: Test C pre-/postemergence test; format: in vivo, Sorghum halepense
Method in brief: as §1

Goosegrass = test: Test C pre-/postemergence test; format: in vivo, Eleusin indica
Method in brief: as §1

wheat = test: Test A pre-/postemergence greenhouse test; format: in vivo, Triticum aestivum; conditions: for Wheat plant response rating: 0 to 100 scale; for Plant response rating, Wheat: 0 to 100 scale where 0 is no effect and 100 is complete control
Method in brief: as §2

crabgrass [3] = test: Test C pre-/postemergence test; format: in vivo, Digitaria sanguinalis
Method in brief: as §1

morningglory = test: Test C pre-/postemergence test; format: in vivo, Ipomoea coccinea
Method in brief: as §1

corn [4] = test: Test A pre-/postemergence greenhouse test; format: in vivo, Zea mays; conditions: for Corn plant response rating: 0 to 100 scale; for Plant response rating, Corn: 0 to 100 scale where 0 is no effect and 100 is complete control
Method in brief: as §2

corn [5] = test: Test C pre-/postemergence test; format: in vivo, Zea mays
Method in brief: as §1

velvetleaf = test: Test C pre-/postemergence test; format: in vivo, Abutilon theophrasti
Method in brief: as §1

umbrella sedge = test: Test C flooded paddy test; format: in vivo, Cyperus difformis; conditions: Flood
Method in brief: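 Visual injury ratings against untreated controls, taken 13 to 15 days after compound was added to paddy water standing 3 cm above the soil.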

[6] = 31 g ai/ha, Preemergence, scale 0 to 100
[7] = 62 g ai/ha, preemergence, scale 0 (no effect) to 100 (complete control)
[8] = preemergence, 125 g ai/ha, scale 0 (no effect) to 100 (complete control)
[9] = Postemergence, 125 g ai/ha, 0 is no effect, 100 is complete control
[10] = Postemergence, 500 g ai/ha, 0 is no effect, 100 is complete control
[11] = Preemergence, 125 g ai/ha, 0 no effect, 100 complete control
[12] = 62 g ai/ha, Preemergence, scale 0 to 100
[13] = 125 g ai/ha, preemergence, scale 0 (no effect) to 100 (complete control)
[14] = Preemergence, 31 g ai/ha, scale 0 to 100 (0 no effect, 100 complete control)
[15] = preemergence, 250 g ai/ha, scale 0 (no effect) to 100 (complete control)

Cn1nc(C(F)(F)F)c(CS(=O)(=O)c2cccc[n+]2[O-])c1OC(F)F [Compound 4]
Ryegrass, Italian plant response rating (Italian ryegrass; [6]): 0
Ryegrass, Italian plant response rating (Italian ryegrass; [7]): 60
Plant response rating (0 to 100), Ryegrass, Italian (Italian ryegrass; Preemergence, 250 g ai/ha): 100
Ryegrass, Italian plant response rating (Italian ryegrass; [8]): 100
Crabgrass, Large plant response rating (crabgrass [1]; [9]): 80
Crabgrass, Large plant response rating (crabgrass [1]; [10]): 80
Crabgrass, Large plant response rating (crabgrass [1]; [11]): 100
Plant response rating, Crabgrass, Large (crabgrass [1]; Preemergence, 500 g ai/ha): 100
Nightshade plant response rating (eastern black nightshade; [6]): 90
Nightshade plant response rating (eastern black nightshade; [7]): 100
Plant response rating (0 to 100), Nightshade (eastern black nightshade; Preemergence, 250 g ai/ha): 100
Nightshade plant response rating (eastern black nightshade; [8]): 100
Barnyardgrass plant response rating (barnyardgrass; [9]): 70
Barnyardgrass plant response rating (barnyardgrass; [10]): 80
Barnyardgrass plant response rating (barnyardgrass; [11]): 70
Plant response rating, Barnyardgrass (barnyardgrass; Preemergence, 500 g ai/ha): 100
Pigweed plant response rating (pigweed; [6]): 100
Pigweed plant response rating (pigweed; [7]): 100
Plant response rating (0 to 100), Pigweed (pigweed; Preemergence, 250 g ai/ha): 100
Pigweed plant response rating (pigweed; [8]): 100
Surinam Grass plant response rating (Surinam grass; [7]): 100
Plant response rating (0 to 100), Surinam Grass (Surinam grass; Preemergence, 250 g ai/ha): 100
Surinam Grass plant response rating (Surinam grass; [8]): 100
Sunflower plant response rating [2, 7]: 10
Plant response rating (0 to 100), Sunflower ([2]; Preemergence, 250 g ai/ha): 80
Sunflower plant response rating [2, 8]: 15
Foxtail, Giant plant response rating (giant foxtail; [6]): 90
Foxtail, Giant plant response rating (giant foxtail; [7]): 100
Plant response rating (0 to 100), Foxtail, Giant (giant foxtail; Preemergence, 250 g ai/ha): 100
Foxtail, Giant plant response rating (giant foxtail; [8]): 100
Johnsongrass plant response rating (johnsongrass; [6]): 95
Johnsongrass plant response rating (johnsongrass; [7]): 95
Plant response rating (0 to 100), Johnsongrass (johnsongrass; Preemergence, 250 g ai/ha): 100
Johnsongrass plant response rating (johnsongrass; [8]): 100
Goosegrass plant response rating (Goosegrass; [6]): 100
Goosegrass plant response rating (Goosegrass; [7]): 100
Plant response rating (0 to 100), Goosegrass (Goosegrass; Preemergence, 250 g ai/ha): 100
Goosegrass plant response rating (Goosegrass; [8]): 100
Wheat plant response rating (wheat; [9]): 60
Wheat plant response rating (wheat; [10]): 60
Wheat plant response rating (wheat; [11]): 50
Plant response rating, Wheat (wheat; Preemergence, 500 g ai/ha): 80
Crabgrass, Large plant response rating (crabgrass [3]; [6]): 98
Crabgrass, Large plant response rating (crabgrass [3]; [7]): 100
Plant response rating (0 to 100), Crabgrass, Large (crabgrass [3]; Preemergence, 250 g ai/ha): 100
Crabgrass, Large plant response rating (crabgrass [3]; [8]): 100
Morningglory plant response rating (morningglory; [6]): 0
Morningglory plant response rating (morningglory; [7]): 0
Plant response rating (0 to 100), Morningglory (morningglory; Preemergence, 250 g ai/ha): 100
Morningglory plant response rating (morningglory; [8]): 85
Corn plant response rating (corn [4]; [9]): 30
Corn plant response rating (corn [4]; [10]): 60
Corn plant response rating (corn [4]; [11]): 20
Plant response rating, Corn (corn [4]; Preemergence, 500 g ai/ha): 80
Corn plant response rating (corn [5]; [6]): 0
Corn plant response rating (corn [5]; [7]): 50
Plant response rating (0 to 100), Corn (corn [5]; Preemergence, 250 g ai/ha): 70
Corn plant response rating (corn [5]; [8]): 55

Cn1nc(C(F)(F)F)c(C[S+]([O-])c2cc(Cl)cc[n+]2[O-])c1Cl (racemic) [Compound 39]
Crabgrass, Large plant response rating (crabgrass [1]; [9]): 80
Crabgrass, Large plant response rating (crabgrass [1]; [10]): 80
Crabgrass, Large plant response rating (crabgrass [1]; [11]): 90
Plant response rating, Crabgrass, Large (crabgrass [1]; Preemergence, 500 g ai/ha): 90
Nightshade plant response rating (eastern black nightshade; [12]): 90
Nightshade plant response rating (eastern black nightshade; [13]): 95
Plant response rating, Nightshade (eastern black nightshade; [14]): 75
Nightshade plant response rating (eastern black nightshade; [15]): 98
Barnyardgrass plant response rating (barnyardgrass; [9]): 70
Barnyardgrass plant response rating (barnyardgrass; [10]): 90
Barnyardgrass plant response rating (barnyardgrass; [11]): 90
Plant response rating, Barnyardgrass (barnyardgrass; Preemergence, 500 g ai/ha): 100
Pigweed plant response rating (pigweed; [12]): 100
Pigweed plant response rating (pigweed; [13]): 100
Plant response rating, Pigweed (pigweed; [14]): 100
Pigweed plant response rating (pigweed; [15]): 100
Surinam Grass plant response rating (Surinam grass; [12]): 80
Surinam Grass plant response rating (Surinam grass; [13]): 90
Plant response rating, Surinam Grass (Surinam grass; [14]): 60
Surinam Grass plant response rating (Surinam grass; [15]): 90
Sunflower plant response rating [2, 12]: 0
Sunflower plant response rating [2, 13]: 0
Plant response rating, Sunflower [2, 14]: 0
Sunflower plant response rating [2, 15]: 75
Velvetleaf plant response rating (velvetleaf; [12]): 45
Velvetleaf plant response rating (velvetleaf; [13]): 60
Plant response rating, Velvetleaf (velvetleaf; [14]): 30
Velvetleaf plant response rating (velvetleaf; [15]): 100
Foxtail, Giant plant response rating (giant foxtail; [12]): 90
Plant response rating, Foxtail, Giant (giant foxtail; [14]): 20
Foxtail, Giant plant response rating (giant foxtail; [15]): 90
Plant response rating, Sedge, Umbrella (umbrella sedge; 31 g ai/ha, scale 0 to 100 (0 no effect, 100 complete control)): 70
Plant response rating, Sedge, Umbrella (umbrella sedge; 62 g ai/ha, scale 0 to 100, 0 no effect, 100 complete control, 13 to 15 days): 85
Plant response rating, Sedge, Umbrella (umbrella sedge; 125 g ai/ha, scale 0 to 100, 0 no effect, 100 complete control, 13 to 15 days): 95
Plant response rating, Sedge, Umbrella (umbrella sedge; 250 g ai/ha, scale 0 to 100, 0 no effect, 100 complete control, 13 to 15 days): 95
Johnsongrass plant response rating (johnsongrass; [12]): 80
Johnsongrass plant response rating (johnsongrass; [13]): 85
Plant response rating, Johnsongrass (johnsongrass; [14]): 30
Johnsongrass plant response rating (johnsongrass; [15]): 85
Goosegrass plant response rating (Goosegrass; [12]): 100
Goosegrass plant response rating (Goosegrass; [13]): 100
Plant response rating, Goosegrass (Goosegrass; [14]): 98
Goosegrass plant response rating (Goosegrass; [15]): 100
Wheat plant response rating (wheat; [9]): 60
Wheat plant response rating (wheat; [10]): 60
Wheat plant response rating (wheat; [11]): 50
Plant response rating, Wheat (wheat; Preemergence, 500 g ai/ha): 70
Crabgrass, Large plant response rating (crabgrass [3]; [12]): 90
Crabgrass, Large plant response rating (crabgrass [3]; [13]): 100
Plant response rating, Crabgrass, Large (crabgrass [3]; [14]): 80
Crabgrass, Large plant response rating (crabgrass [3]; [15]): 100
Morningglory plant response rating (morningglory; [12]): 80
Morningglory plant response rating (morningglory; [13]): 100
Plant response rating, Morningglory (morningglory; [14]): 30
Morningglory plant response rating (morningglory; [15]): 100
Corn plant response rating (corn [4]; [9]): 30
Corn plant response rating (corn [4]; [10]): 50
Corn plant response rating (corn [4]; [11]): 30
Plant response rating, Corn (corn [4]; Preemergence, 500 g ai/ha): 50
Corn plant response rating (corn [5]; [12]): 5
Corn plant response rating (corn [5]; [13]): 70
Plant response rating, Corn (corn [5]; [14]): 0
Corn plant response rating (corn [5]; [15]): 80
